Laboratory results: paper PMC6271893, “In Vitro Antioxidant and Cytotoxic Activity of Some Synthetic Riparin-Derived Compounds” (Molecules, 2014)
Values after ≈ are worked out from the molar mass of the structure shown. Marks after values point to notes of the source that are not given here.

Assays:
[1] = Scavenging activity of nitric oxide (nitrite production induced by SNP, Griess reaction); conditions: for IC50 Nitrite: nitrite formation
Method: (§1) For the in vitro antioxidant tests the samples were emulsified in 0.05% Tween 80 dissolved in saline 0.9% (used as the vehicle) and tested at concentrations of 1, 5, 10, 25 and 100 µg/mL. The samples for the cytotoxicity tests were diluted in pure and sterile DMSO and tested at concentrations of 25 µg/mL.
Nitric oxide was generated from spontaneous decomposition of sodium nitroprusside in 20 mM phosphate buffer (pH 7.4). Once generated, NO interacts with oxygen to produce nitrite ions, which are measured by the Griess reaction. The reaction mixture (1 mL) containing 10 mM sodium nitroprusside (SNP) in phosphate buffer and the riparins at various concentrations of 1, 5, 10, 25 and 100 µg/mL were incubated at 37 °C for 1 h. A 0.5 mL aliquot was taken and homogenized with 0.5 mL Griess reagent. The absorbance of chromophore was measured at 540 nm. Percent inhibition of generated nitric oxide was measured by comparing the absorbance values of negative controls (only 10 mM sodium nitroprusside and vehicle) to assay preparations. Results were expressed as percentage of nitrite formed by SNP alone.

[2] = system: murine peritoneal macrophages RAW 264.7; test: Cytotoxicity assay on RAW 264.7 (LDH release); format: cell-based; conditions: 25 µg/mL, RAW 264.7
Method: Murine peritoneal macrophages of the cell line RAW 264.7 were obtained from the American Type Culture Collection (ATCC, Rockville, MD, USA), and cultured at 37 °C with CO2 at 5% in DMEM-F12 supplemented with 10% fetal bovine serum (FBS; Hyclone^TM, Logan, UT, USA) and gentamicin (50 μg/mL). RAW 264.7 cells (5 × 10^5 cells/mL) were cultured and incubated for 24 h with the riparins A, B, C, D, E and F at the final concentration of 25 µg/mL […]. The cytotoxicity assay was performed by LDH assay. The release of LDH (cytoplasmic lactate dehydrogenase enzyme) was determined using 50 μL of culture supernatant with 100 μL of LDH substrate plus and 5 μL ferric alum (5 mg/mL), at 37 °C for 3 min. Then, 100 μL of the NAD solution and phenazine methosulphate were added to the mixture, maintaining the temperature at 37 °C for 5 min (Labrax Commercial Kit, Clontech, Palo Alto, CA, USA). LDH is an oxidoreductase which catalyzes the interconversion of lactate and pyruvate and, for being a stable cytosolic enzyme, after damage to cell membrane it is released in the cellular environment and because of this LDH is an indirect indicator of cytotoxicity. LDH concentration was determined by colorimetry at 492 nm. The specific release of LDH was calculated as percentage of the controls (not treated cells as negative control and cells treated with 1%Triton X-100 as positive control).
(§2) The obtained data were evaluated by one-way analysis of variance (ANOVA) followed by a Student Newman Keuls post hoc test. The data concerning release percentage of cytoplasmatic enzyme lactate dehydrogenase (LDH) were reported by mean ± standard deviation and evaluated by one-way analysis of variance (ANOVA) followed by a Tukey post hoc test. In all cases differences were considered significant if p < 0.05, the means and respective standard errors were analyzed in the Graph Pad Prism version 5.0 for Windows software (GraphPad Software Incorporated, San Diego, CA, USA).

[3] = Antioxidant potential against the formation of TBARS (AAPH-induced lipid peroxidation of egg yolk homogenate); conditions: for IC50 TBARS: TBARS production
Method: as §1
The TBARS assay was employed to quantify lipid peroxidation and an adapted TBARS method was used to measure the antioxidant capacity of the riparins (Rip-A, -B, -C, -D, -E and -F) using egg yolk homogenate as lipid rich substrate. Egg yolk was homogenized (1% w/v) in 20 mM phosphate buffer (pH 7.4), 1 mL of homogenate was sonicated and then homogenized with 0.1 mL of the samples at concentrations of 1, 5, 10, 25 and 100 µg/mL. Lipid peroxidation was induced by the addition of 0.1 mL of 2,2'-azobis(2-methylpropionamidine) dihydrochloride solution (AAPH; 0.12 M). Control was evaluated with only the vehicle. Reactions were carried out for 15 minutes at 37 °C. After cooling, samples (0.5 mL) were centrifuged with 0.5 mL of trichloroacetic acid (15%) at 1,200 ×g for 10 min. An aliquot of 0.5 mL from supernatant was mixed with 0.5 mL TBA (0.67%) and heated at 95 °C for 30 min. After cooling, sample absorbance was measured using a spectrophotometer at 532 nm. The results were expressed as percentage of TBARS formed by AAPH alone (induced control).

[4] = Hydroxyl radical scavenging activity (2-deoxyribose degradation, Fenton reaction); conditions: for IC50 OH radical: hydroxyl radical content
Method: as §1
The formation of OH radicals from Fenton reagents was quantified using the condensation product of the 2-deoxyribose oxidative degradation product, malonaldehyde, with 2-thiobarbituric acid (TBA). Briefly, typical reactions were started by the addition of Fe^2+ (FeSO4 6 mM final concentration) to solutions containing 5 mM 2-deoxyribose, 100 mM H2O2 and 20 mM phosphate buffer (pH 7.2). In order to determine the antioxidant activity of the riparins against the hydroxyl radical, individual tests were performed on each one of the six substances, in which different concentrations of the riparins were added to the system before Fe^2+ addition (Rip-A; Rip-B; Rip-C; Rip-D; Rip-E and Rip-F). Reactions were carried out for 15 min at room temperature and were quenched by the addition of phosphoric acid 4% (v/v), followed by TBA 1% (thiobarbituric acid, v/v in 50 μL NaOH). The solutions were boiled for 15 min to 95 °C and then cooled at room temperature. The absorbance was measured at 532 nm and the results were expressed as MDA equivalents formed by Fe^2+ and H2O2 [25].

[5] = system: HEP-2 (laryngeal carcinoma); test: Cytotoxicity against tumor cell lines (MTT); format: cell-based; conditions: Homo sapiens, 72 h, 95% confidence interval in brackets, read-out: IC50 values and confidence intervals, HEP-2
Method: (§3) Cells were maintained at 37 °C with 5% CO2 in RPMI 1640 (Himedia^TM, Mumbai, India) or DMEM medium (Gibco^TM, Grand Island, NY, USA) supplemented with 2 mM glutamine, 100 U/mL penicillin, 100 μg/mL streptomycin. The antiproliferative activities of riparins were evaluated in the following human cancer cells lineage: HL-60 (pro-myelocytic leukemia), NCIH-292 (lung carcinoma), and HEP-2 (laryngeal carcinoma) obtained from the Rio de Janeiro Cell Bank (RJ-Brazil). For all experiments, 100 µL of tumor cells were plated in 96-well plates (6 × 10^4 cells/cm^2 for adherent cells or 9 × 10^4 cells/cm^2 for leukemia). Tested compounds (0.1–25 μg/mL) dissolved in 1% DMSO (100 µL) were added to each well and incubated for 72 h. Control groups received the same amount of DMSO. After 69 h of treatment, 25 μL of MTT (5 mg/mL) were added. Three hours later, the MTT formazan product was dissolved in 100 μL of DMSO, and absorbance was measured at 595 nm using a multiplate reader (Thermo Plate®, TP Reader, São Paulo, SP, Brasil).
as §2

[6] = system: NCIH-292 (lung carcinoma); test: Cytotoxicity against tumor cell lines (MTT); format: cell-based; conditions: Homo sapiens, NCI-H292, 72 h, 95% confidence interval in brackets, read-out: IC50 values and confidence intervals, NCIH-292
Method: as §3, §2

[7] = system: HL-60 (pro-myelocytic leukemia); test: Cytotoxicity against tumor cell lines (MTT); format: cell-based; conditions: Homo sapiens, 72 h, 95% confidence interval in brackets, read-out: IC50 values and confidence intervals, HL-60
Method: as §3, §2

[8] = system: tumor cells lines (leukemia and lung and laryngeal carcinoma); test: Cytotoxicity on tumor cell lines, summary statements over the lines (MTT); format: cell-based; conditions: Homo sapiens
Method: as §1, §3

IC50 Nitrite [1] [µg/mL] | IC50 TBARS [3] [µg/mL] | 2-Deoxyribose degradation (%) ([4]; 1 μg/mL) | 2-Deoxyribose degradation (%) ([4]; 5 μg/mL) | 2-Deoxyribose degradation (%) ([4]; 10 μg/mL) | 2-Deoxyribose degradation (%) ([4]; 25 μg/mL) | 2-Deoxyribose degradation (%) ([4]; 100 μg/mL) | IC50 OH radical [4] [µg/mL] | SMILES | Nitrite Production (% induced by SNP) ([1]; 1 μg/mL) | Nitrite Production (% induced by SNP) ([1]; 5 μg/mL) | Nitrite Production (% induced by SNP) ([1]; 10 μg/mL) | Nitrite Production (% induced by SNP) ([1]; 25 μg/mL) | Nitrite Production (% induced by SNP) ([1]; 100 μg/mL) | LDH % Release [2] [%] | TBARS levels (% AAPH) ([3]; 1 μg/mL) | TBARS levels (% AAPH) ([3]; 5 μg/mL) | TBARS levels (% AAPH) ([3]; 10 μg/mL) | TBARS levels (% AAPH) ([3]; 25 μg/mL) | TBARS levels (% AAPH) ([3]; 100 μg/mL) | IC50 [5] [µg/mL] | also measured
0.8404 (≈ 3.73 µM) | 1.147 (≈ 5.09 µM) | 97.1 ± 0.78 ^a % | 76.9 ± 1.10 ^a % | 54.5 ± 0.85 ^a % | 49.6 ± 0.89 ^a % | 44.8 ± 0.30 ^a % | 1.501 (≈ 6.66 µM) | O=C(NCCc1ccccc1)c1ccccc1 [Rip-A, N-Phenethylbenzamide] | 75.1 ± 1.31 ^a % | 29.1 ± 0.61 ^a % | 29.2 ± 2.05 ^a % | 24.3 ± 0.62 ^a % | 20.4 ± 1.20 ^a % | 28.13 | 40.9 ± 1.77 ^a % | 38.1 ± 0.49 ^a % | 36.7 ± 0.66 ^a % | 35.1 ± 0.88 ^a % | 25.8 ± 0.48 ^a % | > 25 | IC50 [6]: > 25 µg/mL; IC50 [7]: > 25 µg/mL
0.7948 (≈ 2.79 µM) | 1.032 (≈ 3.62 µM) | 98.4 ± 0.39 ^a % | 79.8 ± 1.34 ^a % | 58.5 ± 0.85 ^a % | 47.7 ± 0.44 ^a % | 47.2 ± 0.43 ^a % | 1.639 (≈ 5.74 µM) | COc1ccc(CCNC(=O)c2ccccc2)cc1OC [Rip-B, N-[2-(3,4-Dimethoxyphenyl)ethyl]benzamide] | 75.8 ± 1.02 ^a % | 34.1 ± 1.85 ^a % | 29.1 ± 2.00 ^a % | 23.1 ± 0.97 ^a % | 20.6 ± 0.98 ^a % | 17.31 | 44.5 ± 1.31 ^a % | 40.4 ± 0.85 ^a % | 38.3 ± 1.05 ^a % | 36.5 ± 1.21 ^a % | 29.7 ± 1.31 ^a % | > 25 | melting point: 90 °C; IC50 [6]: > 25 µg/mL; IC50 [7]: > 25 µg/mL
0.7240 (≈ 3 µM) | 0.8971 (≈ 3.72 µM) | 95.5 ± 1.30 ^a % | 80.9 ± 1.29 ^a % | 58.7 ± 1.37 ^a % | 52.1 ± 0.13 ^a % | 46.7 ± 0.35 ^a % | 0.9516 (≈ 3.94 µM) | O=C(NCCc1ccccc1)c1ccccc1O [Rip-C, 2-Hydroxy-N-phenethylbenzamide] | 69.3 ± 1.07 ^a % | 34.9 ± 0.23 ^a % | 22.9 ± 1.31 ^a % | 19.8 ± 0.83 ^a % | 16.5 ± 1.44 ^a % | 87.35 | 39.3 ± 0.60 ^a % | 38.8 ± 1.07 ^a % | 34.3 ± 0.92 ^a % | 29.5 ± 1.91 ^a % | 25.7 ± 2.62 ^a % | 7.3 (≈ 30.3 µM) | LDH % Release ([2]; listed as riparin C): greater than 80%; IC50 ([8]; leukemia and lung and laryngeal carcinoma, read-out: IC50 values on neoplastic cells (range over cell lines)): 1.9 to 11.4 µg/mL (≈ 7.87 to 47.2 µM); inhibition at 25 µg/mL ([8]; tumor cells lines, cytotoxicity samples tested at 25 µg/mL, read-out: cell growth inhibition rates): > 70%; melting point: 95 °C; IC50 [6]: > 25 µg/mL; IC50 [7]: 3.3 µg/mL (≈ 13.7 µM)
